Measured values as given in US20160312240A1, “MODIFIED PYR/PYL RECEPTORS ACTIVATED BY ORTHOGONAL LIGANDS” (The Regents of the University of California, priority 2010, published 2016).

How the values were obtained:
[1] = test system: PYR/PYL-PP2C protein-protein interactions; assay: Yeast competition screen: reduction of ABA-promoted PYR/PYL-PP2C interaction; type: cell-based; conditions: 100 nM ABA and 100 μM test chemical (1000-fold excess), yeast strains
From the text: To isolate PYR1 orthogonal receptors, a two-step process was used. First, a large collection of compounds was screened to identify compounds that weakly interact with receptors, defined as such by their ability to displace receptor-bound ABA in competition experiments. Once weak binders were identified, those with the most desirable properties from an end-use perspective were used as targets for iterative mutagenesis and selection schemes. Pre-selection of weak-binding ligands improves the frequency of isolating new receptor proteins, because fewer alterations of the ligand binding site are required to achieve molecular recognition. However, pre-selection is not a prerequisite for success.
Pre-selection of ligands. 74 structurally diverse agrochemicals were obtained, selected from a larger set of approximately 1500 commercially available agrochemicals. These 74 compounds were tested for their ability to reduce ABA-promoted PYR/PYL-PP2C protein-protein interactions in suitable yeast strains when added at 1000-fold excess relative to ABA (i.e. 100 nM ABA and 100 μM test chemical).

wild-type PYR1 protein = target: T1, wild-type PYR1 protein (Arabidopsis thaliana, UniProt O49686); assay: In vitro PP2C phosphatase activity assay (receptor activation = inhibition of PP2C); type: biochemical; conditions: increasing concentrations, 10 mM Mn++ buffer, FIG. 1
T1 construct: made in house
Protocol: (§1) FIGS. 1A-1B. PYR1 mutant 27-18 confers responsiveness to fenhexamid but not ABA. Representative PYR1 mutant 27-18 (comprising S47P, K59R, and Y120H substitution mutations) was tested for responsiveness to abscisic acid (“ABA”) (FIG. 1A) and fenhexamid (FIG. 1B) at increasing concentrations as compared to a wild-type PYR1 control using an in vitro PP2C phosphatase activity assay.
(§2) To probe orthogonal receptor-ligand interactions further, recombinant protein was expressed for the fenhexamid-responsive mutant 27-18, which has three mutations in PYR1. 6×-His-PYR1(27-18) protein was expressed and purified alongside wild-type PYR1 protein. Both proteins were tested for their ability to inhibit PP2C activity in response to increasing concentrations of either ABA or fenhexamid using phosphatase activity assays, in which activation of the PYR/PYL receptor is monitored by inhibition of PP2C activity (FIG. 1).

[2] = target: T2, 6×-His-PYR1(27-18) (S47P, K59R, Y120H) (Arabidopsis thaliana, UniProt O49686, K59R/S47P/Y120H); assay: as above; type: biochemical; conditions: mutant 27-18; increasing concentrations; 10 mM Mn++ buffer; FIG. 1
T2 construct: 6x-His (N); made in house
Protocol: as §1, §2

PYL2 = PYL2 (Arabidopsis thaliana, UniProt O80992); conditions: cited from earlier work
PYL1 = PYL1 (Arabidopsis thaliana, UniProt Q8VZS8); conditions: cited from earlier work
PYR1 = PYR1 (Arabidopsis thaliana, UniProt O49686); conditions: cited from earlier work
PYR1 mutant 74A-1 = target: T3, PYR1 mutant 74A-1 (Arabidopsis thaliana, UniProt O49686, H60R/K59R/N151D); assay: Yeast two-hybrid assay confirming bromoxynil responsiveness; type: cell-based; conditions: 10, 25, and 50 μM (applied 5, 10, 25, 50 μM)
T3 construct: expressed in transfected cells
Protocol: (§3) Plasmids for three representative mutant clones (27-9, 27-18, and 27-36) were isolated from the primary yeast cells and transformed into a pAD-HAB1 expressing YRG-2 reporter strain (Park et al., Science 324:1068-1071 (2009)) in which Ga14 drives expression of a LacZ reporter gene to allow colorimetric indication of agonist response. Fenhexamid was applied at concentrations of 1, 5, 10, 25, and 50 μM. […] Mutant 27-36 was responsive to fenhexamid at 25 and 50 μM concentrations.
(§4) Screens for bromoxynil (Table 2), dichlobenil (Table 3), and benoxacor (Table 4) responsive PYR1 mutants were conducted as described above for fenhexamid, each utilizing 200 μM test compound and the A′ library, generated as described above. Yeast two-hybrid assay confirmed bromoxynil responsiveness for representative mutant clones 74A-1 and 74A-2. Bromoxynil was applied at concentrations of 5, 10, 25, and 50 μM. Both mutants 74A-1 and 74A-2 were responsive to bromoxynil at concentrations of 10, 25, and 50 μM.

PYR1 mutant 74A-2 = target: T4, PYR1 mutant 74A-2 (Arabidopsis thaliana, UniProt O49686, K59R/S92T); assay: as above; type: cell-based; conditions: 10, 25, and 50 μM (applied 5, 10, 25, 50 μM)
T4 construct: expressed in transfected cells; host or cells: Saccharomyces cerevisiae two-hybrid reporter strain expressing pAD-HAB1 (YRG-2 is named only for the fenhexamid confirmation)
Protocol: as §3, §4

PYR/PYL receptors = assay: Observed weak agonism of PYR/PYL receptors; conditions: weak PYR/PYL agonist
Protocol: (§5) To test these two hypotheses, a series of K59 mutants were constructed in PYR1 and examined for their sensitivity to the native ligand ABA and the orthogonal ligand dichlobenil (Table 6). Dichlobenil was chosen as a model orthogonal ligand for these studies because it was observed that it is a weak PYR/PYL agonist (i.e., it can weakly activate receptors at concentrations of 200 μM or higher). Dichlobenil therefore provides a useful test molecule with which to probe a mutant's sensitivity to an orthogonal ligand.

wild-type PYR1 (WT) = wild-type PYR1 (WT) (Arabidopsis thaliana, UniProt O49686); assay: Responsiveness of PYR1 K59 mutants to ABA and dichlobenil; type: cell-based
Protocol: as §5

PYR1 mutant BTH-9 = target: T5, PYR1 mutant BTH-9 (Arabidopsis thaliana, UniProt O49686, F159L); assay: Yeast two-hybrid assay confirming BTH responsiveness; type: cell-based; conditions: 50, 100, and 200 μM (applied 25, 50, 100, 200 μM)
T5 construct: expressed in transfected cells; host or cells: Saccharomyces cerevisiae two-hybrid reporter strain expressing pAD-HAB1 (strain not restated for BTH)
Protocol: as §3
Given the plasticity of PYR1 indicated by these experiments, we sought to establish if an orthogonal receptor could be isolated for a target ligand that was not prescreened for weak binding using the yeast competition assays described above. The same screening methodology as described above was used to screen for mutants that respond to BTH (acibenzolar-s-methyl). […] Yeast two-hybrid assay confirmed BTH responsiveness for representative mutant clone BTH-9. […] was applied at concentrations of 25, 50, 100, and 200 μM, and mutant BTH-9 was responsive to BTH at concentrations of 50, 100, and 200 μM. Thus, the plasticity of PYR1 enables many orthogonal receptor variants to be isolated.

T2 sequence (O49686 whole entry S47P/K59R/Y120H): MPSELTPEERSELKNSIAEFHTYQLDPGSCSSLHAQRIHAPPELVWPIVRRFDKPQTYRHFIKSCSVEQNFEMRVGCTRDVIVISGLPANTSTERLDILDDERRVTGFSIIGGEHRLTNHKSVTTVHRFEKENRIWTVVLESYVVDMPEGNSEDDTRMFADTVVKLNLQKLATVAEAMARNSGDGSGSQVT
T2 sequence (Q9CAJ0 23-511, stated change not applied, further chain): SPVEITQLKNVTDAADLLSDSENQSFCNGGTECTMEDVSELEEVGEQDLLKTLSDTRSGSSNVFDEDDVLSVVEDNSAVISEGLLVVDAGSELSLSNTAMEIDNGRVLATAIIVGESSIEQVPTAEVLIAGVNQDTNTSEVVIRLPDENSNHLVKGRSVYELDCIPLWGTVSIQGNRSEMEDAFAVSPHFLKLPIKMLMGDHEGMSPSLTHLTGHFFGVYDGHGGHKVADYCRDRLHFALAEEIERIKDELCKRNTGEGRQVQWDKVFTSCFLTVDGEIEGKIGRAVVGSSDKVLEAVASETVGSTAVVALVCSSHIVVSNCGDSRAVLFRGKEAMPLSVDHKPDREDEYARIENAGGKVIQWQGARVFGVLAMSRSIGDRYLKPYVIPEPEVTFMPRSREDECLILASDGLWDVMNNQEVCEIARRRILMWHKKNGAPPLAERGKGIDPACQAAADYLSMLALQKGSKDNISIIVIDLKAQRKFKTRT
Chain of PYL2 (O80992 whole entry): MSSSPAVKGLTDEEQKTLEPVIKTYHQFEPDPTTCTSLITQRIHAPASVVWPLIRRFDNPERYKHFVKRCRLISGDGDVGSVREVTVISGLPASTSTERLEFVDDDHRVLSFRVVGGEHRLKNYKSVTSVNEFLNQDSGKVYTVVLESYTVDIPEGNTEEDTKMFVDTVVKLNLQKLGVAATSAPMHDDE
Chain of PYL1 (Q8VZS8 whole entry): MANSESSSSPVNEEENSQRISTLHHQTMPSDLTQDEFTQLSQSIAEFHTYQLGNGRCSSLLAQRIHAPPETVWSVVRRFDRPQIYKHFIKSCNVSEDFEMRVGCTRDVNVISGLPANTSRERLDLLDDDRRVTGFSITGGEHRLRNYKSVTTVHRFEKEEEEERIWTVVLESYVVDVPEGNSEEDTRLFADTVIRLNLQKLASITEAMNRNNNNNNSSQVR
T5 sequence (O49686 whole entry F159L): as the sequence (O49686 whole entry S47P/K59R/Y120H) above, with P47S, R59K, H120Y, F159L counted along it
T5 sequence (Q9CAJ0 23-511 partner): as the sequence (Q9CAJ0 23-511, stated change not applied, further chain) above
T4 sequence (O49686 whole entry K59R/S92T): as the sequence (O49686 whole entry S47P/K59R/Y120H) above, with P47S, S92T, H120Y counted along it
T4 sequence (Q9CAJ0 23-511, further chain): as the sequence (Q9CAJ0 23-511, stated change not applied, further chain) above
Chain of wild-type PYR1 (WT) (O49686 whole entry): as the sequence (O49686 whole entry S47P/K59R/Y120H) above, with P47S, R59K, H120Y counted along it
Chain of wild-type PYR1 (WT) (Q9CAJ0 23-511 partner): as the sequence (Q9CAJ0 23-511, stated change not applied, further chain) above
T1 sequence (O49686 whole entry): as the sequence (O49686 whole entry S47P/K59R/Y120H) above, with P47S, R59K, H120Y counted along it
T1 sequence (Q9CAJ0 23-511 partner): as the sequence (Q9CAJ0 23-511, stated change not applied, further chain) above
Chain of PYR1 (O49686 whole entry): as the sequence (O49686 whole entry S47P/K59R/Y120H) above, with P47S, R59K, H120Y counted along it
T3 sequence (Q9CAJ0 23-511): as the sequence (Q9CAJ0 23-511, stated change not applied, further chain) above
T3 sequence (O49686 whole entry K59R/H60R/N151D): as the sequence (O49686 whole entry S47P/K59R/Y120H) above, with P47S, H60R, H120Y, N151D counted along it

## O=c1oc2ccccc2c(O)c1C1CCCc2ccccc21 (centres unmarked) [coumatetralyl]
[1]
  ability to reduce ABA-promoted PYR/PYL-PP2C protein-protein interactions: compete for ABA

## CC1=CC(=O)CC(C)(C)[C@@]1(O)/C=C/C(C)=C\C(=O)O [ABA, abscisic acid]
wild-type PYR1 protein
  Receptor activation (inhibition of PP2C activity): efficiently activated
[2]
  Receptor activation (inhibition of PP2C activity): failed to activate

## N#Cc1cc(Cl)c(O)c(Cl)c1 [chloroxynil]
[1]
  ability to reduce ABA-promoted PYR/PYL-PP2C protein-protein interactions: compete for ABA

## O=S(=O)(NCc1ccccn1)c1ccc(Br)c2ccccc12 [pyrabactin]
PYL2
  Responsiveness to pyrabactin: do not
PYL1
  Responsiveness to pyrabactin: strong responsiveness
PYR1
  Responsiveness to pyrabactin: strong responsiveness

## N#Cc1cc(Br)c(O)c(Br)c1 [bromoxynil]
[1]
  ability to reduce ABA-promoted PYR/PYL-PP2C protein-protein interactions: compete for ABA
PYR1 mutant 74A-1
  Responsiveness to bromoxynil (yeast two-hybrid): responsive
PYR1 mutant 74A-2
  Responsiveness to bromoxynil (yeast two-hybrid): responsive

## N#Cc1c(Cl)cccc1Cl [dichlobenil]
PYR/PYL receptors
  Concentration at which receptors are weakly activated: ≥ 200 µM
[1]
  ability to reduce ABA-promoted PYR/PYL-PP2C protein-protein interactions: compete for ABA
wild-type PYR1 (WT)
  Responsiveness, Dichlobenil [50 μM]: not activated

## CSC(=O)c1cccc2nnsc12 [BTH, acibenzolar-s-methyl]
PYR1 mutant BTH-9
  Responsiveness to BTH (yeast two-hybrid): responsive
